Laboratory results taken from US6913935B1, “Multiple assay method” (Amersham Biosciences UK Limited, priority 1998, dated 2005).

Target: streptavidin (Streptomyces avidinii, UniProt P22629)
Assay: Competition of Cy-5 labelled biotin binding to streptavidin coated beads, mixed wells analysed by flow cytometry
Conditions: well 2, bead type B (purple fluor), buffer containing biotin added before Cy-5 labelled biotin; compared with well 1 (buffer only)
Description: Streptavidin coated bead type A (yellow fluor) and bead type B (purple fluor) were pipetted into two separate wells of a microtitre plate, such that well 1 contained bead A and well 2 contained bead B. Buffer was added to well 1 and buffer containing biotin was added to well 2. Following mixing arid incubation a solution of Cy-5 labelled biotin in buffer was added to both wells. Following further incubation the contents of well 1 and well 2 were combined and the mixture analysed by flow cytometry.

streptavidin, sequence (P22629 25-183, species assumed): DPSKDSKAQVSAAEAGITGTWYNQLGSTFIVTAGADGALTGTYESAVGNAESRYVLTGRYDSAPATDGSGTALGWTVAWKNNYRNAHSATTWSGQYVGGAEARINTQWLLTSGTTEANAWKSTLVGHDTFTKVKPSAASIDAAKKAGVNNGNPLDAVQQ

O=C(O)CCCC[C@@H]1SC[C@@H]2NC(=O)N[C@@H]21 [biotin]
Cy-5 fluorescence associated with bead type (Cy-5-biotin binding to streptavidin on the bead surface): low Cy-5-biotin binding
